Assay results: patent US6545182B2, “Methods and compositions for modulating alpha adrenergic receptor activity” (Allergan Sales, Inc., priority 2000, dated 2003)

Key:
Format in all cases: cell-based
[1] = biological target: T1, alpha 2A adrenergic receptor (Homo sapiens, UniProt P08913); experiment: RSAT (Receptor Selection and Amplification Technology) assay, alpha 2A; conditions: for EC50: NIH-3T3 cells cotransfected with receptor and Gq/i5; for efficacy or intrinsic activity (value in parentheses) Alpha 2A: ratio of maximal effect to that of standard full agonist brimonidine
T1 construct: expressed in transfected cells; host or cells: NIH-3T3 cells, transient cotransfection by calcium phosphate
T1 sequence (P08913 1-465): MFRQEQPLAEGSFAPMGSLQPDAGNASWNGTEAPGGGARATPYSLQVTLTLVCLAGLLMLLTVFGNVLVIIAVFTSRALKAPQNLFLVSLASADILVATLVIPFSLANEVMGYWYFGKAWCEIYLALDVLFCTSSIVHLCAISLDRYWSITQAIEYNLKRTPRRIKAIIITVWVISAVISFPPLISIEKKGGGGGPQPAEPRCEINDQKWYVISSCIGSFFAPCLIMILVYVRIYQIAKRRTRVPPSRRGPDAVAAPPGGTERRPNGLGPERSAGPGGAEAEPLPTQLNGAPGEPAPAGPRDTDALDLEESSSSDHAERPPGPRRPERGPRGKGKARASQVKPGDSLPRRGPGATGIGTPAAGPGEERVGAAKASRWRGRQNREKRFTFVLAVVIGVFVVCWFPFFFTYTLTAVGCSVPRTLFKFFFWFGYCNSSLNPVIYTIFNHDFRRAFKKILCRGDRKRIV
Procedure: (§1) Activity was measured using the RSAT (Receptor Selection and Amplification Technology) assay, developed by Receptor Technologies, Inc. of Winooski, Vt. (now Acadia Pharmaceuticals of San Diego, Calif.), adapted for use with recombinant alpha2 adrenergic receptors in collaboration with Allergan. The assay measures receptor-mediated loss of contact inhibition that results in selective proliferation of receptor-containing cells in a mixed population of confluent cells. The increase in cell number is assessed with an appropriate transfected marker gene such as β-galactosidase, the activity of which can be easily measured in a 96-well format. Receptors that activate the G protein, Gq, elicit this response. Alpha2 receptors, which normally couple to Gi, activate the RSAT response when coexpressed with a hybrid Gq protein that has a Gi receptor recognition domain, called Gq/i5.
(§2) The assay is conducted as follows. NIH-3T3 cells are plated at a density of 2×10^6 cells in 15 cm dishes and maintained in Dulbecco's modified Eagle's medium supplemented with 10% calf serum. One day later, cells are cotransfected by calcium phosphate precipitation with mammalian expression plasmids encoding p-SV-β-galactosidase (5-10 μg), receptor (1-2 μg) and G protein (1-2 μg). 40 μg salmon sperm DNA may also be included in the transfection mixture to increase transfection efficiency. Fresh media is added on the following day and 1-2 days later, cells are harvested and frozen in 50 assay aliquots. Transfectant cells are thawed and 100 μl added to 100 μl aliquots of various concentrations of drugs in triplicate in 96-well dishes. Incubations continue 72-96 hr at 37°. After washing with phosphate-buffered saline, β-galactosidase enzyme activity is determined by adding 200 μl of the chromogenic substrate (consisting of 3.5 mM o-nitrophenyl-β-D-galactopyranoside and 0.5% of the non-ionic surfactant nonidet P-40 in phosphate buffered saline), incubating overnight at 30° and measuring optical density at 420 nm. The absorbency is a measure of enzyme activity, which depends on cell number and reflects a receptor-mediated cell proliferation. The EC50 and maximal effect of each drug at each alpha2 receptor is determined. The efficacy or intrinsic activity is calculated as a ratio of the maximal effect of the drug to the maximal effect of a standard full agonist for each receptor subtype. Brimonidine, also called UK14304, is used as the standard agonist for the alpha2A, alpha2B and alpha2C receptors. The RSAT assay is also discussed in Messier et al. (1995) High throughput assays of cloned adrenergic, muscarinic, neurokinin and neurotrophin receptors in living mammalian cells, Pharmacol. Toxicol. 76:308-11; see also Conklin et al. (1993) Substitution of three amino acids switches receptor specificity of Gqα to that of Giα, Nature 363:274-6; Both of these papers are incorporated by reference herein.

[2] = biological target: T2, alpha 2B adrenergic receptor (Homo sapiens, UniProt P18089); experiment: RSAT (Receptor Selection and Amplification Technology) assay, alpha 2B; conditions: for EC50: NIH-3T3 cells cotransfected with receptor and Gq/i5; for efficacy or intrinsic activity (value in parentheses) Alpha 2B: ratio of maximal effect to that of standard full agonist brimonidine
T2 construct: expressed in transfected cells; host or cells: NIH-3T3 cells, transient cotransfection by calcium phosphate
T2 sequence (P18089 1-450): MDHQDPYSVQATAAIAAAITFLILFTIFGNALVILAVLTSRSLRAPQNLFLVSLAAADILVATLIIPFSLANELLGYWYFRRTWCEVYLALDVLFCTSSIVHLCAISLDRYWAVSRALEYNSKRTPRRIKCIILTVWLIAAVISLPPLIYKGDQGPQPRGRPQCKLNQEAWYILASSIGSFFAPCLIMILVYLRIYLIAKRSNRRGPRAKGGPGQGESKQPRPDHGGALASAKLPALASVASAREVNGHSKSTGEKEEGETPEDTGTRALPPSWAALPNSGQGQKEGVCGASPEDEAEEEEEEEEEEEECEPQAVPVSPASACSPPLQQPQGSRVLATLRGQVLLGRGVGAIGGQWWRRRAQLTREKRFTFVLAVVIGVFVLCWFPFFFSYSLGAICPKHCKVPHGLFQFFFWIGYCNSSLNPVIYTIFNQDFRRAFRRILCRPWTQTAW
Procedure: as §1, §2

[3] = biological target: T3, alpha 2C adrenergic receptor (Homo sapiens, UniProt P18825); experiment: RSAT (Receptor Selection and Amplification Technology) assay, alpha 2C; conditions: for EC50: NIH-3T3 cells cotransfected with receptor and Gq/i5; for efficacy or intrinsic activity (value in parentheses) Alpha 2C: ratio of maximal effect to that of standard full agonist brimonidine
T3 construct: expressed in transfected cells; host or cells: NIH-3T3 cells, transient cotransfection by calcium phosphate
T3 sequence (P18825 1-462): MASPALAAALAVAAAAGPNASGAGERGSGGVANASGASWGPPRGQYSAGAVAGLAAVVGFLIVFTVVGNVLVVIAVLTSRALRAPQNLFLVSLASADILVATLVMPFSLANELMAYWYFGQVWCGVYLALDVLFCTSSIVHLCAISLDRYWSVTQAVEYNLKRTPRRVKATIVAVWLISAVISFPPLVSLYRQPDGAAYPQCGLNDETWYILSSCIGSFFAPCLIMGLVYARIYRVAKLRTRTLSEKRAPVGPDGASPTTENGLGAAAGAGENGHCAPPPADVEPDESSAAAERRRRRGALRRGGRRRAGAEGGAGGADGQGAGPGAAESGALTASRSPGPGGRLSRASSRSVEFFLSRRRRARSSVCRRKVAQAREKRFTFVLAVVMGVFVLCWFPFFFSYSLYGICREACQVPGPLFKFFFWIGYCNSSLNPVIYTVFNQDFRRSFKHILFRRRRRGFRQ
Procedure: as §1, §2

EC50 [1] [nM]	EC50 [2] [nM]	efficacy or intrinsic activity (value in parentheses) Alpha 2B [2]	EC50 [3] [nM]	efficacy or intrinsic activity (value in parentheses) Alpha 2C [3]	efficacy or intrinsic activity (value in parentheses) Alpha 2A [1]	Compound
≥ 210000	462	0.45	5060	0.4	–	OCCNC(=S)NCc1c(F)cccc1F
≥ 210000	694	0.93	783	0.4	–	OCCNC(=S)NCc1ccccc1C(F)(F)F
≥ 210000	282	0.91	–	–	–	COc1ccc(F)c(CNC(=S)NCCO)c1
≥ 210000	95	0.91	–	–	–	Cc1ccc(F)c(CNC(=S)NCCO)c1
≥ 210000	205	0.81	–	–	–	OCCNC(=S)NCc1c(F)ccc(Br)c1F
≥ 210000	50	0.78	–	–	–	OCCNC(=S)NCc1cc(Br)ccc1Cl
≥ 210000	25	0.82	–	–	–	OCCNC(=S)NCc1cc(Cl)ccc1Br
≥ 210000	271	0.48	–	–	–	OCCNC(=S)NCc1cc(F)c(F)cc1F
≥ 210000	33	1.1	–	–	–	OCCNC(=S)NCc1cccc(C(F)(F)F)c1Cl
≥ 210000	118	0.92	–	–	–	OCCNC(=S)NCc1cc(Cl)cc(Cl)c1F
≥ 210000	181	0.95	> 2000	–	–	Cc1ccc(Br)c(F)c1CNC(=S)NCCO
≥ 210000	17	1.13	87	0.6	–	OCCNC(=S)NCc1cc(Cl)ccc1F
≥ 210000	44	0.94	1850	0.54	–	OCCNC(=S)NCc1c(F)ccc(F)c1Cl
≥ 210000	21	1.26	226	0.7	–	OCCNC(=S)NCc1ccccc1I
63	30	1.16	232	0.58	0.42	OCCNC(=S)NCc1cccc(I)c1
≥ 210000	13	0.85	53	0.51	–	OCCNC(=S)NCc1cc(F)ccc1F

EC50 [1] [nM]	EC50 [2] [nM]	efficacy or intrinsic activity (value in parentheses) Alpha 2B [2]	EC50 [3] [nM]	efficacy or intrinsic activity (value in parentheses) Alpha 2C [3]	efficacy or intrinsic activity (value in parentheses) Alpha 2A [1]	Compound
≥ 210000	2360	0.73	≥ 210000	–	–	OCCNC(=S)NCc1c(F)c(F)c(F)c(F)c1F
≥ 210000	478	0.72	> 2000	–	–	OCCNC(=S)NCc1ccc(F)cc1C(F)(F)F
≥ 210000	235	0.92	406	0.43	–	COc1cccc(F)c1CNC(=S)NCCO
930	9	0.96	45	0.78	0.39	COc1ccc(F)cc1CNC(=S)NCCO
≥ 210000	137	0.68	617	0.37	–	OCCNC(=S)NCc1c(F)cccc1C(F)(F)F
≥ 210000	30	0.75	238	0.34	–	OCCNC(=S)NCc1c(F)ccc(Cl)c1Cl
≥ 210000	523	0.8	853	0.7	–	OCCNC(=S)NCc1cc(C(F)(F)F)ccc1F
546	62	1.06	278	0.66	0.31	Cc1cc(Cl)c(F)c(CNC(=S)NCCO)c1
≥ 210000	89	0.92	1420	0.78	–	OCCNC(=S)NCc1c(Cl)ccc(Cl)c1F
≥ 210000	243	0.9	2370	0.51	–	OCCNC(=S)NCc1c(F)c(F)cc(F)c1F
≥ 210000	27	1.20	144	0.74	–	OCCNC(=S)NCc1cc(F)ccc1O
≥ 210000	2050	0.89	≥ 210000	–	–	OCCNC(=S)NCc1c(F)cc(F)c(F)c1F
≥ 210000	141	1.08	> 2000	–	–	OCCNC(=S)NCc1c(F)cccc1I
62	2	1.35	23	0.91	0.85	OCCNC(=S)NCc1cccc(I)c1F
≥ 210000	49	0.76	322	0.68	–	OCCNC(=S)NCc1cc(I)ccc1F
